Results: US20210045385A1, “PYRIDAZINONE-SUBSTITUTED KETOXIMES AS HERBICIDES” (FMC Corporation, priority 2018, published 2021)

Experiments:
Format in all cases: in vivo
[1] = test system: ragweed (common ragweed, Ambrosia elatior); assay: Test A preemergence, visual plant response rating; conditions: for Ragweed plant response rating: 125 g ai/ha, preemergence, 0 to 100 scale, 0 no effect, 100 complete control; for Ragweed plant response rating (0 to 100 scale): approx. 10 days
Method in brief: (§1)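 Ratings use a 0–100 visual scale (100 = complete control) against untreated controls, scored about 10 days after greenhouse treatment. Test chemicals were formulated in surfactant-containing non-phytotoxic solvent and applied either as soil spray after planting (preemergence) or onto one- to two-leaf, 2–10 cm plants (postemergence).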

[2] = test system: foxtail, giant (giant foxtail, Setaria faberii); assay: Test A preemergence, visual plant response rating; conditions: for Foxtail, Giant plant response rating: 125 g ai/ha, preemergence, 0 to 100 scale, 0 no effect, 100 complete control; for Foxtail, Giant plant response rating (0 to 100 scale): approx. 10 days
Method in brief: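 Compared with untreated controls, treated plants received a visual injury score on a 0–100 scale around 10 days after application. The compound, in a non-phytotoxic solvent with surfactant, was given as a preemergence soil spray or postemergence at the one- to two-leaf stage.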

[3] = test system: Italian ryegrass (Lolium multiflorum); assay: Test A preemergence, visual plant response rating; conditions: for Ryegrass, Italian plant response rating: 125 g ai/ha, preemergence, 0 to 100 scale, 0 no effect, 100 complete control; for Ryegrass, Italian plant response rating (0 to 100 scale): approx. 10 days
Method in brief: as §1

[4] = test system: barnyardgrass (Echinochloa crus-galli); assay: Test A preemergence, visual plant response rating; conditions: for Barnyardgrass plant response rating: 125 g ai/ha, preemergence, 0 to 100 scale, 0 no effect, 100 complete control; for Barnyardgrass plant response rating (0 to 100 scale): approx. 10 days
Method in brief: as §1

[5] = test system: kochia (Kochia scoparia); assay: Test A preemergence, visual plant response rating; conditions: for Kochia plant response rating: 125 g ai/ha, preemergence, 0 to 100 scale, 0 no effect, 100 complete control; for Kochia plant response rating (0 to 100 scale): approx. 10 days
Method in brief: as §1

[6] = test system: pigweed (Amaranthus retroflexus); assay: Test A preemergence, visual plant response rating; conditions: for Pigweed plant response rating: 125 g ai/ha, preemergence, 0 to 100 scale, 0 no effect, 100 complete control; for Pigweed plant response rating (0 to 100 scale): approx. 10 days
Method in brief: as §1

[7] = test system: ragweed (common ragweed, Ambrosia elatior); assay: Test A postemergence, visual plant response rating; conditions: for Ragweed plant response rating (0 to 100 scale): 500 g ai/ha, postemergence, 0 is no effect, 100 is complete control; for Ragweed plant response rating: Postemergence, 125 g ai/ha, 0 to 100 scale (0 no effect, 100 complete control)
Method in brief: as §1

[8] = test system: foxtail, giant (giant foxtail, Setaria faberii); assay: Test A postemergence, visual plant response rating; conditions: for Foxtail, Giant plant response rating (0 to 100 scale): 500 g ai/ha, postemergence, 0 is no effect, 100 is complete control; for Foxtail, Giant plant response rating: Postemergence, 125 g ai/ha, 0 to 100 scale (0 no effect, 100 complete control)
Method in brief: as §1

[9] = test system: Italian ryegrass (Lolium multiflorum); assay: Test A postemergence, visual plant response rating; conditions: for Ryegrass, Italian plant response rating (0 to 100 scale): 500 g ai/ha, postemergence, 0 is no effect, 100 is complete control; for Ryegrass, Italian plant response rating: Postemergence, 125 g ai/ha, 0 to 100 scale (0 no effect, 100 complete control)
Method in brief: as §1

[10] = test system: corn (Zea mays); assay: Test A postemergence, visual plant response rating; conditions: for Corn plant response rating (0 to 100 scale): 500 g ai/ha, postemergence, 0 is no effect, 100 is complete control; for Corn plant response rating: Postemergence, 125 g ai/ha, 0 to 100 scale (0 no effect, 100 complete control)
Method in brief: as §1

[11] = test system: galium (catchweed bedstraw, Galium aparine); assay: Test A postemergence, visual plant response rating; conditions: for Galium plant response rating (0 to 100 scale): 500 g ai/ha, postemergence, 0 is no effect, 100 is complete control; for Galium plant response rating: Postemergence, 125 g ai/ha, 0 to 100 scale (0 no effect, 100 complete control)
Method in brief: as §1

[12] = test system: barnyardgrass (Echinochloa crus-galli); assay: Test A postemergence, visual plant response rating; conditions: for Barnyardgrass plant response rating (0 to 100 scale): 500 g ai/ha, postemergence, 0 is no effect, 100 is complete control; for Barnyardgrass plant response rating: Postemergence, 125 g ai/ha, 0 to 100 scale (0 no effect, 100 complete control)
Method in brief: as §1

[13] = test system: blackgrass (Alopecurus myosuroides); assay: Test A postemergence, visual plant response rating; conditions: for Blackgrass plant response rating (0 to 100 scale): 500 g ai/ha, postemergence, 0 is no effect, 100 is complete control; for Blackgrass plant response rating: Postemergence, 125 g ai/ha, 0 to 100 scale (0 no effect, 100 complete control)
Method in brief: as §1

[14] = test system: kochia (Kochia scoparia); assay: Test A postemergence, visual plant response rating; conditions: for Kochia plant response rating (0 to 100 scale): 500 g ai/ha, postemergence, 0 is no effect, 100 is complete control; for Kochia plant response rating: Postemergence, 125 g ai/ha, 0 to 100 scale (0 no effect, 100 complete control)
Method in brief: as §1

[15] = test system: wheat (Triticum aestivum); assay: Test A postemergence, visual plant response rating; conditions: for Wheat plant response rating (0 to 100 scale): 500 g ai/ha, postemergence, 0 is no effect, 100 is complete control; for Wheat plant response rating: Postemergence, 125 g ai/ha, 0 to 100 scale (0 no effect, 100 complete control)
Method in brief: as §1

[16] = test system: pigweed (Amaranthus retroflexus); assay: Test A postemergence, visual plant response rating; conditions: for Pigweed plant response rating (0 to 100 scale): 500 g ai/ha, postemergence, 0 is no effect, 100 is complete control; for Pigweed plant response rating: Postemergence, 125 g ai/ha, 0 to 100 scale (0 no effect, 100 complete control)
Method in brief: as §1

[17] = test system: rice (Oryza sativa); assay: Test B flooded paddy test, visual plant response rating; conditions: 250 g ai/ha, Flood, applied to paddy water, 2-leaf stage, evaluated after 13 to 15 days
Method in brief: (§2)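 2-leaf plants; pots flooded 3 cm over soil surface; compound dosed straight into the floodwater; depth kept constant; greenhouse 13–15 d; visual rating vs. untreated controls.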

[18] = test system: ducksalad (Heteranhera limosa); assay: as above; conditions: 250 g ai/ha, Flood, applied to paddy water, 2-leaf stage, evaluated after 13 to 15 days
Method in brief: as §2

[19] = test system: barnyardgrass (Echinochloa crus-galli); assay: as above; conditions: 250 g ai/ha, Flood, applied to paddy water, 2-leaf stage, evaluated after 13 to 15 days
Method in brief: as §2

[20] = test system: sedge, umbrella (small-flower umbrella sedge, Cyperus difformis); assay: as above; conditions: 250 g ai/ha, Flood, applied to paddy water, 2-leaf stage, evaluated after 13 to 15 days
Method in brief: as §2

| SMILES | Ragweed plant response rating (0 to 100 scale) ([1]; 500 g ai/ha Preemergence) | Foxtail, Giant plant response rating (0 to 100 scale) ([2]; 500 g ai/ha Preemergence) | Ryegrass, Italian plant response rating (0 to 100 scale) ([3]; 500 g ai/ha Preemergence) | Barnyardgrass plant response rating (0 to 100 scale) ([4]; 500 g ai/ha Preemergence) | Kochia plant response rating (0 to 100 scale) ([5]; 500 g ai/ha Preemergence) | Pigweed plant response rating (0 to 100 scale) ([6]; 500 g ai/ha Preemergence) | Ragweed plant response rating (0 to 100 scale) [7] | Ragweed plant response rating [7] | Foxtail, Giant plant response rating (0 to 100 scale) [8] | Foxtail, Giant plant response rating [8] | Ryegrass, Italian plant response rating (0 to 100 scale) [9] | Ryegrass, Italian plant response rating [9] | Corn plant response rating (0 to 100 scale) [10] | Corn plant response rating [10] | Galium plant response rating (0 to 100 scale) [11] | Galium plant response rating [11] | Barnyardgrass plant response rating (0 to 100 scale) [12] | Barnyardgrass plant response rating [12] | Blackgrass plant response rating (0 to 100 scale) [13] | Blackgrass plant response rating [13] | further results |
| --- | --- | --- | --- | --- | --- | --- | --- | --- | --- | --- | --- | --- | --- | --- | --- | --- | --- | --- | --- | --- | --- |
| CON=C(c1c(O)c(C)nn(C)c1=O)c1cccc2ccoc12 [Compound 61] | 70 | 10 | 80 | 0 | 0 | 0 | 30 | 10 | 20 | 0 | 70 | 10 | 0 | 0 | 80 | 60 | 20 | 0 | 20 | 10 | Ragweed plant response rating [1]: 0; Foxtail, Giant plant response rating [2]: 0; Ryegrass, Italian plant response rating [3]: 30; Barnyardgrass plant response rating [4]: 0; Kochia plant response rating [5]: 0; Pigweed plant response rating [6]: 0; Kochia plant response rating (0 to 100 scale) [14]: 50; Kochia plant response rating [14]: 30; Wheat plant response rating (0 to 100 scale) [15]: 40; Wheat plant response rating [15]: 30; Pigweed plant response rating (0 to 100 scale) [16]: 80; Pigweed plant response rating [16]: 50; Plant response rating, Rice (0 to 100 scale, 0 is no effect, 100 is complete control) [17]: 0; Plant response rating, Ducksalad (0 to 100 scale, 0 is no effect, 100 is complete control) [18]: 0; Plant response rating, Barnyardgrass (0 to 100 scale, 0 is no effect, 100 is complete control) [19]: 0; Plant response rating, Sedge, Umbrella (0 to 100 scale, 0 is no effect, 100 is complete control) [20]: 0 |
| CCc1ccccc1C(=NOC)c1c(O)c(C)nn(C)c1=O [Compound 37] | 80 | 80 | 60 | 20 | 80 | 90 | 80 | 60 | 70 | 30 | 90 | 80 | 30 | 0 | 90 | 80 | 20 | 10 | 80 | 60 | Ragweed plant response rating [1]: 10; Foxtail, Giant plant response rating [2]: 30; Ryegrass, Italian plant response rating [3]: 40; Barnyardgrass plant response rating [4]: 0; Kochia plant response rating [5]: 0; Pigweed plant response rating [6]: 40; Kochia plant response rating (0 to 100 scale) [14]: 80; Kochia plant response rating [14]: 60; Wheat plant response rating (0 to 100 scale) [15]: 10; Wheat plant response rating [15]: 0; Pigweed plant response rating (0 to 100 scale) [16]: 90; Pigweed plant response rating [16]: 70; Plant response rating, Rice (0 to 100 scale, 0 is no effect, 100 is complete control) [17]: 0; Plant response rating, Ducksalad (0 to 100 scale, 0 is no effect, 100 is complete control) [18]: 0; Plant response rating, Barnyardgrass (0 to 100 scale, 0 is no effect, 100 is complete control) [19]: 0; Plant response rating, Sedge, Umbrella (0 to 100 scale, 0 is no effect, 100 is complete control) [20]: 0 |
| CON=C(c1cccc(Cl)c1)c1c(O)c(C)nn(CC2CC2)c1=O (mixture of isomers) [Compound 4] | 0 | 50 | 30 | 70 | 0 | 0 | 0 | 0 | 0 | 0 | 0 | 0 | 0 | 0 | 0 | 0 | 0 | 0 | 40 | 0 | Ragweed plant response rating (0 to 100 scale) ([1]; 125 g ai/ha Preemergence): 0; Foxtail, Giant plant response rating (0 to 100 scale) ([2]; 125 g ai/ha Preemergence): 0; Ryegrass, Italian plant response rating (0 to 100 scale) ([3]; 125 g ai/ha Preemergence): 0; Barnyardgrass plant response rating (0 to 100 scale) ([4]; 125 g ai/ha Preemergence): 20; Kochia plant response rating (0 to 100 scale) ([5]; 125 g ai/ha Preemergence): 0; Pigweed plant response rating (0 to 100 scale) ([6]; 125 g ai/ha Preemergence): 0; Kochia plant response rating (0 to 100 scale) [14]: 0; Kochia plant response rating [14]: 0; Wheat plant response rating (0 to 100 scale) [15]: 0; Wheat plant response rating [15]: 0; Pigweed plant response rating (0 to 100 scale) [16]: 0; Pigweed plant response rating [16]: 0; Plant response rating, Rice (0 to 100 scale, 0 is no effect, 100 is complete control) [17]: 0; Plant response rating, Ducksalad (0 to 100 scale, 0 is no effect, 100 is complete control) [18]: 0; Plant response rating, Barnyardgrass (0 to 100 scale, 0 is no effect, 100 is complete control) [19]: 0; Plant response rating, Sedge, Umbrella (0 to 100 scale, 0 is no effect, 100 is complete control) [20]: 0 |
